Results: ChEMBL document CHEMBL4190278, “Multipotent AChE and BACE-1 inhibitors for the treatment of Alzheimer's disease: Design, synthesis and bio-analysis of 7-amino-1,4-dihydro-2H-isoquilin-3-one derivates” (Eur J Med Chem, 2017)
The source made the active and inactive calls. No cut-off for these calls is given here.

Experiments:
Acetylcholinesterase [1] = target: T1, Acetylcholinesterase (Homo sapiens, UniProt P22303); experiment: Inhibition of human AChE using acetylthiocholine as substrate by Ellman's method
T1 sequence (P22303 whole entry): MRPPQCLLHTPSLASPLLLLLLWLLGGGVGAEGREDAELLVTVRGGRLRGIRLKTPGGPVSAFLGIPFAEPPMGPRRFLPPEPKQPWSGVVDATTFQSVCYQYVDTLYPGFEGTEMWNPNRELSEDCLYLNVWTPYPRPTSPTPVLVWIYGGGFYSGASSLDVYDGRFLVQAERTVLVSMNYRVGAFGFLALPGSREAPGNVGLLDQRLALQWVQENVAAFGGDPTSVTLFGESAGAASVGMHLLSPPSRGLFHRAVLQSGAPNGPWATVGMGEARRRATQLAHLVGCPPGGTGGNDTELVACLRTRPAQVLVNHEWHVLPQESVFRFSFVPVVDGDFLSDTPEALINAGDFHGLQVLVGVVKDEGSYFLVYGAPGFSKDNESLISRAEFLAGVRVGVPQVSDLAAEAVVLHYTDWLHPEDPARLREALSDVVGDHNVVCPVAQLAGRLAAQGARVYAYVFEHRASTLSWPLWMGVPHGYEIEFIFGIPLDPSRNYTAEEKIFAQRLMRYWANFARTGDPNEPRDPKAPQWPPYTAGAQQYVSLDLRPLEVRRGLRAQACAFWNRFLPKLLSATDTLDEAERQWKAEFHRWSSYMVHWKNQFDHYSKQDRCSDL

Acetylcholinesterase [2] = target: T1, Acetylcholinesterase; experiment: Potency index, ratio of donepezil IC50 to compound IC50 for human AChE
[3] = Metal chelating activity assessed as Cu2+-compound complex formation at 35 uM by UV-Visible spectrophotometric method

| Compound | IC50 (Acetylcholinesterase [1]) [nM] | Ratio IC50 (Acetylcholinesterase [2]) | Activity [3] |
| --- | --- | --- | --- |
| COc1ccccc1C(=O)Nc1ccc2c(c1)CN(C(=O)c1cccc(C)c1)C(=O)C2 | 0.0259 |  |  |
| O=C(Nc1ccc2c(c1)CN(C(=O)c1ccccc1)C(=O)C2)c1ccccc1 | 0.51 |  |  |
| O=C(Nc1ccc2c(c1)CN(C(=O)c1cccc(Cl)c1)C(=O)C2)c1cccc(Cl)c1 | 0.0142 |  |  |
| O=C(Nc1ccc2c(c1)CN(C(=O)c1cccc(Cl)c1)C(=O)C2)c1ccccc1 | 0.0284 |  |  |
| Cc1cccc(C(=O)N2Cc3cc(NC(=O)c4cccc(Cl)c4)ccc3CC2=O)c1 | 0.0144 |  |  |
| COc1ccccc1C(=O)N1Cc2cc(NC(=O)c3cccc(Cl)c3)ccc2CC1=O |  | 315 |  |
| Cc1cccc(C(=O)N2Cc3cc(NC(=O)c4ccccc4)ccc3CC2=O)c1 | 0.0262 |  |  |
| O=C1Cc2ccc(NC(=O)c3ccccc3)cc2CN1 | 1320 |  |  |
| Cc1cccc(C(=O)Nc2ccc3c(c2)CN(C(=O)c2cccc(C)c2)C(=O)C3)c1 | 0.0135 |  |  |
| COc1ccccc1C(=O)Nc1ccc2c(c1)CN(C(=O)c1ccccc1OC)C(=O)C2 | 0.0216 |  |  |
| COc1ccccc1C(=O)N1Cc2cc(NC(=O)c3ccccc3)ccc2CC1=O | 0.0189 | 181 | Active |
| Cc1cccc(C(=O)Nc2ccc3c(c2)CNC(=O)C3)c1 | 791 |  |  |
| COc1ccccc1C(=O)Nc1ccc2c(c1)CNC(=O)C2 | 926 |  |  |
| O=C1Cc2ccc(NC(=O)c3cccc(Cl)c3)cc2CN1 | 914 |  |  |
| Cc1cccc(C(=O)Nc2ccc3c(c2)CN(C(=O)c2cccc(Cl)c2)C(=O)C3)c1 | 0.0209 |  |  |
| Nc1ccc2c(c1)CNC(=O)C2 | 1360 |  |  |
